From publication PMC12578387, “TET3 is a common epigenetic immunomodulator of pathogenic macrophages” (The Journal of Clinical Investigation, 2025) come the findings set out here.

Assay [1] deals with TET3 (Tet methylcytosine dioxygenase 3) (Homo sapiens, UniProt O43151). Put plainly: AlphaScreen of Bc-dependent TET3-VHL ternary complex formation; supported by co-IP and degradation of TET3 in human MDMs. It counts as binding. Background: Alpha assays give light when donor and acceptor beads are brought close together.
Assay [2] has as its target TET1 (Homo sapiens, UniProt Q8NFU7). Put plainly: AlphaScreen of Bc-dependent TET1-VHL ternary complex formation (weaker than TET3; no TET1 degradation in cells). The assay is classed as binding.

Chain of TET3 (Tet methylcytosine dioxygenase 3) (O43151 850-1795 limits assumed): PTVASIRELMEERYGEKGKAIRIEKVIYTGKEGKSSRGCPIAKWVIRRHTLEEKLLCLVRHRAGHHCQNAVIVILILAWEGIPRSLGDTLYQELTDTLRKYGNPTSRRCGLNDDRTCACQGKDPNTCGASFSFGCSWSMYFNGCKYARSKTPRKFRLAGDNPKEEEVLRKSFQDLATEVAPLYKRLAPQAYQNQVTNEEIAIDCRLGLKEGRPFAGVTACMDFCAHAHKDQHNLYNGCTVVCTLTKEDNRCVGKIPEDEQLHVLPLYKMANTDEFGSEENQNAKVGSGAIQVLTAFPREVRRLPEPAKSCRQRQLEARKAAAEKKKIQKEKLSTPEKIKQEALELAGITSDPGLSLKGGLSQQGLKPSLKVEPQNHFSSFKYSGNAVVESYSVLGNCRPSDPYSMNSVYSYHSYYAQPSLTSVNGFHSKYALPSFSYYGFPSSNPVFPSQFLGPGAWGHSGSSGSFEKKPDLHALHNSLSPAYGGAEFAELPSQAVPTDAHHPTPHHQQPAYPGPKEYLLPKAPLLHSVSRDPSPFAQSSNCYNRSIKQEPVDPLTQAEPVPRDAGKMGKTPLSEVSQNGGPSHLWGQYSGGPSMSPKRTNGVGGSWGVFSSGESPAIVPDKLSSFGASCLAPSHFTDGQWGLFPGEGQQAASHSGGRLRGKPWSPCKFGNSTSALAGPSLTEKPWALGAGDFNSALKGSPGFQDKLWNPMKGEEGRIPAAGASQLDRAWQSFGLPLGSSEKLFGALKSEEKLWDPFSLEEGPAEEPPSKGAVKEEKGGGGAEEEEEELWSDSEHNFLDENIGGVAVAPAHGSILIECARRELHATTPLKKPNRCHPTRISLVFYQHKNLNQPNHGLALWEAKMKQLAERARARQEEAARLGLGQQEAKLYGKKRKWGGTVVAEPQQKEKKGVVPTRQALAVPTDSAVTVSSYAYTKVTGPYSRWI
Chain of TET3 (Tet methylcytosine dioxygenase 3) (P40337 whole entry partner): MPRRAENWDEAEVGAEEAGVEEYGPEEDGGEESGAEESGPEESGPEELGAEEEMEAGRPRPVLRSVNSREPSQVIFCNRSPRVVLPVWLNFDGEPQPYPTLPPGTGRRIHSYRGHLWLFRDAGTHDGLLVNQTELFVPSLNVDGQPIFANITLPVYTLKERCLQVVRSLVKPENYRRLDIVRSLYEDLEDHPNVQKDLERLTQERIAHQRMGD
Chain of TET1 (Q8NFU7 1418-2136 limits assumed): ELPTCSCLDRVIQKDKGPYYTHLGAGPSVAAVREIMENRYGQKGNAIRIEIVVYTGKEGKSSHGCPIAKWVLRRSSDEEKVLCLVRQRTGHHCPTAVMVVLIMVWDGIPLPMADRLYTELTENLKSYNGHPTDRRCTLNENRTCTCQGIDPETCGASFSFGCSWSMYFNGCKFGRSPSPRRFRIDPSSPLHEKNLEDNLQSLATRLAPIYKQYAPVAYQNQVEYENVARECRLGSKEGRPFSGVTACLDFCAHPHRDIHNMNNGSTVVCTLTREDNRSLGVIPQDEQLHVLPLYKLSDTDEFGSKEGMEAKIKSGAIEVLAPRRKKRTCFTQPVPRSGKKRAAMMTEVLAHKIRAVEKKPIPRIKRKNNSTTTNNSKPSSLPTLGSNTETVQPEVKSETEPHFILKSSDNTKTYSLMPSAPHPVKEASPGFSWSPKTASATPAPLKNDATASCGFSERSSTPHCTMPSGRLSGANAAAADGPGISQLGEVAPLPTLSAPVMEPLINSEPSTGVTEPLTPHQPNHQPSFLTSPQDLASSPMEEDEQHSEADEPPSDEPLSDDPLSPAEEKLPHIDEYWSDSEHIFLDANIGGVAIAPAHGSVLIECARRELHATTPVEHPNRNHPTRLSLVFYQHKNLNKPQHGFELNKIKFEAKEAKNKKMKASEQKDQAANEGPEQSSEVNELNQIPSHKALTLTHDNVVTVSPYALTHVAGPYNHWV
Chain of TET1 (P40337 whole entry partner): as the sequence (P40337 whole entry partner) above

Regarding `Nc1nc(=O)n(-c2cccc(-c3ccccc3)c2)cc1Cl` [Bc, Bobcat339], the concentration giving a half-maximal response (EC50) (usually the concentration that produces a half-maximal response) in assay [1] came to 0.05 mM; in assay [2], 8.51 mM.
